Measured values as given in the supplement of paper PMC10307832.

Legend:
Assay in all cases: relative viability (nuclei count vs DMSO), 5 days (fraction); higher = more cells survive
Sulindac + Pictilisib = compound: CC1=C(CC(=O)O)c2cc(F)ccc2/C1=C\c1ccc([S+](C)[O-])cc1 [Sulindac] + CS(=O)(=O)N1CCN(Cc2cc3nc(-c4cccc5[nH]ncc45)nc(N4CCOCC4)c3s2)CC1 [Pictilisib] (partner 1 µM)
In short: (§1)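 For relative viability, nuclei counts in treated wells were divided by those in vehicle wells. Lung cancer cell lines had been pin-tool dosed in 1536-well plates the day after seeding and cultured for 5 days, then fixed and stained in one step (final 0.05% Triton X-100, 1% formaldehyde, 1 ug/ml Hoechst) and imaged at 4×. Doses were one drug alone or a fixed anchor-drug dose plus five library-drug doses (not always all listed) in √10 steps, and values are duplicate-plate medians.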

[1] = compound: O=c1[nH]cc(F)c(=O)[nH]1 [5-Fluorouracil] + CC1(C)CCC(c2ccc(Cl)cc2)=C(CN2CCN(c3ccc(C(=O)NS(=O)(=O)c4ccc(N[C@H](CCN5CCOCC5)CSc5ccccc5)c(S(=O)(=O)C(F)(F)F)c4)cc3)CC2)C1 [Navitoclax] (partner 0.5 µM)
In short: as §1

Sulindac + Palbociclib = compound: CC1=C(CC(=O)O)c2cc(F)ccc2/C1=C\c1ccc([S+](C)[O-])cc1 [Sulindac] + CC(=O)c1c(C)c2cnc(Nc3ccc(N4CCNCC4)cn3)nc2n(C2CCCC2)c1=O [Palbociclib] (partner 0.5 µM)
In short: as §1

[2] = compound: O=c1[nH]cc(F)c(=O)[nH]1 [5-Fluorouracil] + C[C@]1(O)C[C@@H](c2nc(-c3ccc4ccc(-c5ccccc5)nc4c3)c3c(N)nccn32)C1 [Linsitinib] (partner 1 µM)
In short: as §1

NCI-H2228 was tested, and the relative viability (Sulindac + Pictilisib; first compound 0.08 µM) was 0.488, the relative viability (Sulindac + Pictilisib; first compound 0.253 µM) was 0.407 and the relative viability (Sulindac + Pictilisib; first compound 0.8 µM) was 0.244. It also gave a relative viability (Sulindac + Pictilisib; first compound 2.53 µM) of 0.383, a relative viability (Sulindac + Pictilisib; first compound 8 µM) of 0.603 and a relative viability ([1]; first compound 0.02 µM) of 0.808. It also gave a relative viability ([1]; first compound 0.2 µM) of 1.06, a relative viability ([1]; first compound 0.6325 µM) of 0.732 and a relative viability ([1]; first compound 2 µM) of 0.42. For the same cell line, the relative viability (Sulindac + Palbociclib; first compound 0.08 µM) was 0.876, the relative viability (Sulindac + Palbociclib; first compound 0.253 µM) was 0.967 and the relative viability (Sulindac + Palbociclib; first compound 0.8 µM) was 0.487. It also gave a relative viability (Sulindac + Palbociclib; first compound 2.53 µM) of 0.864, a relative viability (Sulindac + Palbociclib; first compound 8 µM) of 0.831 and a relative viability ([2]; first compound 0.02 µM) of 0.443. It also gave a relative viability ([2]; first compound 0.2 µM) of 0.627, a relative viability ([2]; first compound 0.6325 µM) of 0.48 and a relative viability ([2]; first compound 2 µM) of 0.36.
